Results taken from patent US8329704B2, “Substituted pyrazinone derivatives for use in MCH-1 mediated diseases” (Janssen Pharmaceutica, N.V., priority 2005, dated 2012).

target: T1, human MCH-1 receptor (Homo sapiens, UniProt Q99705); assay: Ca2+ mobilization experiment for the MCH-1 receptor (FLIPR), inhibition of MCH-induced Ca2+ mobilization; format: cell-based; conditions: CHO cells stably expressing human MCH-1 receptor, inhibition of MCH-induced Ca2+ response, read-out: MCH-1 pIC50 (converted)
T1 construct: expressed in transfected cells
T1 sequence (Q99705 whole entry): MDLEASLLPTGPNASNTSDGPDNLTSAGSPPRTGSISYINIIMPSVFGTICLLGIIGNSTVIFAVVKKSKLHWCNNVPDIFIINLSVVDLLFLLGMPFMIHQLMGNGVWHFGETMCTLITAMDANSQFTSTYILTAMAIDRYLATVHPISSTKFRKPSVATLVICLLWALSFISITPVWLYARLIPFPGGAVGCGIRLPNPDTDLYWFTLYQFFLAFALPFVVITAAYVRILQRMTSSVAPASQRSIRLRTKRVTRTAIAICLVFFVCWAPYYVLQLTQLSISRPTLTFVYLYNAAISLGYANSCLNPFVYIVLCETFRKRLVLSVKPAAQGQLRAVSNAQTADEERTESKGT
Description: The interaction of the compounds of Formula (I) with MCH-1 receptors was assessed in in vitro transient calcium (Ca^2+) mobilization assays in the fluorimetric imaging plate reader (FLIPR) format (Sullivan et al. 1999, Methods Mol Biol 114:125-133). In general, the natural agonist (MCH) is incubated with cells expressing the MCH-1 receptor, which elicits a concentration-dependent transient mobilization of Ca^2+ from internal stores. The interaction of the test compounds with the receptor is assessed in competition experiments. Various concentrations of the test compound are added to the incubation mixture containing the receptor-expressing cells and a submaximal concentration of MCH. The test compound in proportion to its antagonist potency and its concentration inhibits MCH-induced Ca^2+ mobilization.
Chinese Hamster ovary cells (CHO) stably expressing the human MCH-1 receptor are grown in a 1:1 mixture of Dulbecco's Modified Eagles Medium (DMEM) and HAM's F12 medium including Glutamax™ (Invitrogen), supplemented with 10% heat-inactivated fetal bovine serum and 400 μg/ml geneticin.
Twenty-four hours before the experiment, MCH-1 receptor-expressing CHO cells are seeded in 20 μl (5,000 cells per well) into 384-well black wall, clear bottom microtiter plates (Costar). On the day of the experiment, 20 μl per well calcium assay kit containing 10 mM probenicide (Molecular Devices) is added. Cells are loaded for 90 min at 37° C. and 5% CO2 in a cell culture incubator. After loading, 20 μl of serial dilutions of the test compound are added and cells are further incubated for 20 min at room temperature in the dark. After 20 min, 20 μl of a submaximal MCH concentration is added and changes in intracellular calcium are recorded directly in a FLIPR III apparatus (Molecular devices).
Data from assays in the presence of compound were calculated as a percentage of total Ca^2+-responses measured in the absence of test compound. Inhibition curves, plotting percent of total Ca^2+-responses versus the log value of the concentration of the test compound, were automatically generated, and sigmoidal inhibition curves were fitted using non-linear regression. The pIC50 values of test compounds were derived from individual curves.

SMILES | IC50
COc1cc(-n2ccnc(NCCOc3ccccc3)c2=O)ccc1N1CCC(NC(C)=O)CC1 [1-14] | 316 nM
O=c1c(NCCOc2ccccc2)nccn1-c1ccc(OCCN2CCCC2)c(CO)c1 [1-51] | 126 nM
O=c1c(NCCOc2ccccc2)nccn1-c1ccc(OCCN2CCCC2)c(Cl)c1 [1-56] | 7940 nM
CNC1CCN(c2ccc(-n3ccnc(NCCOc4ccccc4)c3=O)cc2)C1 (stereo not drawn) [1-01] | 501 nM
COc1cc(-n2ccnc(NCCCOc3ccc(F)cc3)c2=O)ccc1OCCN1CCCC1 [2-18] | 39.8 nM
CN(C)CCCNc1ccc(-n2ccnc(NCCOc3ccccc3)c2=O)cc1 [1-21] | 501 nM
CCN(CCOc1ccc(-n2ccnc(NCCOc3ccccc3)c2=O)cc1)Cc1ccncc1 [1-34] | 1000 nM
COc1cc(-n2ccnc(NCCc3ccccc3)c2=O)ccc1N1CCC(N(C2CC2)C2CC2)C1 (stereo not drawn) [3-18] | 158 nM
CCCC(=O)N(C)CCOc1ccc(-n2ccnc(NCCOc3ccccc3)c2=O)cc1OC [1-62] | 50.1 nM
COc1cc(-n2ccnc(NCCc3ccccc3)c2=O)ccc1NC1CC2COCC(C1)N2 (stereo not drawn) [3-27] | 79.4 nM
O=c1c(NCCOc2ccccc2)nccn1-c1ccc(OCCN2CCCC2)nc1 [3-91] | 3980 nM
CN(C(=O)OC(C)(C)C)C1CCN(c2ccc(-n3ccnc(NCCc4ccccc4)c3=O)cc2)C1 (stereo not drawn) [3-05] | 158 nM
O=C1CCN(CCOc2ccc(-n3ccnc(NCCOc4ccccc4)c3=O)cc2)CC1 [1-40] | 251 nM
CCCN(C)CCOc1ccc(-n2ccnc(NCCOc3ccccc3)c2=O)cc1 [1-24] | 158 nM
COc1cc(-n2ccnc(SCCc3ccccc3)c2=O)ccc1OC1CCN(C(C)C)C1 (stereo not drawn) [6-16] | 25.1 nM
COc1cc(-n2ccnc(N3CCC(c4ccccc4OC)C3)c2=O)ccc1OCCN1CCCC1 (stereo not drawn) [4-06] | 6310 nM
COc1cc(-n2ccnc(NCCOc3ccccc3)c2=O)ccc1OCCCN1CCC(O)C1 (stereo not drawn) [1-76] | 126 nM
COc1cc(-n2ccnc(NCCOc3ccccc3)c2=O)ccc1N1CCC(N(C)C)C1 (stereo not drawn) [1-10] | 100 nM
COc1cc(-n2ccnc(NCCOc3ccccc3)c2=O)ccc1N1CCC(N(C)C(=O)C(C)C)C1 (stereo not drawn) [1-11] | 100 nM
COc1cc(-n2ccnc(NCCOc3ccccc3)c2=O)ccc1OCCN1CCCC(CO)C1 (stereo not drawn) [1-72] | 50.1 nM
COc1cc(-n2ccnc(NCCc3cccc(Br)c3)c2=O)ccc1OCCN1CCCC1 [2-20] | 31.6 nM
O=c1c(NCCOc2ccccc2)nccn1-c1ccc(OCCN2CCC3(CC2)OCCO3)cc1 [1-43] | 200 nM

SMILES | IC50
COc1cc(-n2ccnc(N3CCC(c4ccc(C)cc4)C3)c2=O)ccc1OCCN1CCCC1 (stereo not drawn) [4-04] | 316 nM
COc1cc(-n2ccnc(NCCc3ccccc3)c2=O)ccc1C=CCN1CCOCC1 [3-23] | 39.8 nM
COc1cc(-n2ccnc(NCCc3ccccc3Br)c2=O)ccc1OCCN1CCCC1 [2-19] | 316 nM
COc1cc(-n2ccnc(NCCc3ccccc3)c2=O)ccc1OCCN(C)CCO [3-37] | 50.1 nM
COc1cc(-n2ccnc(NCCc3ccccc3)c2=O)ccc1OCC1CCCN1C(=O)OC(C)(C)C (stereo not drawn) [3-36] | 126 nM
COc1cc(-n2ccnc(NCCc3ccccc3)c2=O)ccc1OCCCN(C)C1CC1 [3-68] | 39.8 nM
COc1cc(-n2ccnc(NCCc3ccccc3)c2=O)ccc1OCCNC(=O)c1ccncc1 [3-44] | 200 nM
COc1cc(-n2ccnc(NCCOc3ccccc3)c2=O)ccc1OCCN(C)C(=O)c1ccccc1 [1-66] | 251 nM
CC(C)C(=O)N(C)C1CCN(c2ccc(-n3ccnc(NCCOc4ccccc4)c3=O)cc2)C1 (stereo not drawn) [1-03] | 39.8 nM
O=c1c(NCCc2ccccc2)nccn1-c1ccc2nc(N3CCCCC3)ccc2c1 [3-87] | 200 nM
COc1cc(-n2ccnc(NCCOc3ccccc3)c2=O)ccc1OCCN1CCC(C#N)CC1 [1-71] | 100 nM
O=c1c(NCCc2ccccc2)nccn1-c1ccc(N2CCNCC2)c(Cl)c1 [3-77] | 100 nM
O=c1c(NCCOc2ccccc2)nccn1-c1ccc(C=CCN2CCCC2)cc1 [1-16] | 100 nM
COc1cc(-n2ccnc(NCCOc3ccccc3)c2=O)ccc1OCCN1CCC(O)C1 (stereo not drawn) [1-68] | 126 nM
COc1cc(-n2ccnc(NCCOc3ccccc3)c2=O)ccc1N1CCC(N(C)C(=O)C2CC2)C1 (stereo not drawn) [1-12] | 79.4 nM
CC(=O)N(C)C1CCN(c2ccc(-n3ccnc(NCCOc4ccccc4)c3=O)cc2)C1 (stereo not drawn) [1-02] | 251 nM
COc1cc(-n2ccnc(NCCc3ccccc3)c2=O)ccc1N1CCC(NC2CC2)C1 (stereo not drawn) [3-16] | 50.1 nM
COCc1cc(-n2ccnc(NCCOc3ccccc3)c2=O)ccc1OCCN1CCCC1 [1-52] | 158 nM
COc1cc(-n2ccnc(NCCc3ccccc3)c2=O)ccc1OC1CCN(C2CC2)C1 (stereo not drawn) [3-33] | 50.1 nM
COc1cc(-n2ccnc(NCCOc3ccc(Cl)cc3Cl)c2=O)ccc1OCCN1CCCC1 [2-40] | 200 nM
COc1cc(-n2ccnc(SCCc3ccccc3)c2=O)ccc1N1CC[C@H](N(C)C)C1 [6-05] | 12.6 nM
COc1cc(-n2ccnc(NCCc3ccccc3)c2=O)ccc1OCCCN1CCC(F)CC1 [3-72] | 25.1 nM

SMILES | IC50
COc1cc(-n2ccnc(SCCc3ccccc3)c2=O)ccc1OC1CCNC1 (stereo not drawn) [6-14] | 100 nM
COc1cc(-n2ccnc(NCCc3ccccc3)c2=O)ccc1OCCNC(C)=O [3-38] | 63.1 nM
COc1cc(-n2ccnc(NCCCOc3ccccc3)c2=O)ccc1OC1CCN(C(=O)OC(C)(C)C)CC1 [7-02] | 126 nM
COc1cc(-n2ccnc(NCCc3ccccc3)c2=O)ccc1NCCN1CCOCC1 [3-29] | 63.1 nM
C=CCc1cc(-n2ccnc(NCCOc3ccccc3)c2=O)ccc1OCCN1CCCC1 [1-49] | 31.6 nM
COc1cccc(OCCCNc2nccn(-c3ccc(OCCN4CCCC4)c(OC)c3)c2=O)c1 [2-37] | 398 nM
O=c1c(NCCc2ccccc2)nccn1-c1ccc(OCCN2CCCC2)cc1 [2-02] | 126 nM
COC(=O)C1CCN(CCOc2ccc(-n3ccnc(NCCOc4ccccc4)c3=O)cc2)CC1 [1-42] | 158 nM
COc1cc(-n2ccnc(NCCOc3ccccc3)c2=O)ccc1OCC(C)N1CCCC1 (stereo not drawn) [1-82] | 63.1 nM
COc1cc(-n2ccnc(CCOc3ccccc3)c2=O)ccc1OCCN1CCCC1 [2-07] | 79.4 nM
COc1ccc(CCNc2nccn(-c3ccc(OCCN4CCCC4)c(OC)c3)c2=O)cc1 [2-36] | 50.1 nM
COc1ccc(OCCCNc2nccn(-c3ccc(OCCN4CCCC4)c(OC)c3)c2=O)cc1 [2-38] | 2000 nM
CC(=O)N(C)C1CCN(c2ccc(-n3ccnc(NCCOc4ccccc4)c3=O)cn2)C1 (stereo not drawn) [3-88] | 794 nM
O=C1CCC(=O)N1CCOc1ccc(-n2ccnc(NCCOc3ccccc3)c2=O)cc1 [1-37] | 100 nM
COc1cc(-n2ccnc(OCCOc3ccccc3)c2=O)ccc1OCCN1CCCC1 [2-14] | 100 nM
CNC1CCN(c2ccc(-n3ccnc(NCCOc4ccccc4)c3=O)cc2OC)C1 (stereo not drawn) [1-09] | 20 nM
COc1cc(-n2ccnc(NCCCOc3cccc(Cl)c3)c2=O)ccc1OCCN1CCCC1 [2-31] | 25.1 nM
COc1cc(-n2ccnc(SCCc3ccccc3)c2=O)ccc1C=CCN1CCOCC1 [6-13] | 20 nM
COc1cc(-n2ccnc(NCCc3ccccc3)c2=O)ccc1N1CCC(N(C)C(C)=O)C1 (stereo not drawn) [3-10] | 79.4 nM
COc1cc(-n2ccnc(NCCc3ccccc3)c2=O)ccc1OCCN1CC[C@H](F)C1 [3-46] | 50.1 nM
COc1cc(-n2ccnc(NCCc3ccccc3)c2=O)ccc1OCCN1CCCC1C(N)=O (stereo not drawn) [3-48] | 79.4 nM
COc1cc(-n2ccnc(NCCc3ccccc3)c2=O)ccc1OCCNC1CC1 [3-41] | 25.1 nM
